From patent US20250163104A1, “MACROCYCLIC IMMUNOMODULATORS” (priority 2021, published 2025)
Where a SMILES comes first, the peptide text is derived from it. Bridges are numbered along the chain shown (N, C = ends). [ ]: non-standard residue; d: D form. The star is where a group is joined. ξ: configuration not given here. Phe(4-CONH2) = NC(=O)c1ccc(C[C@H](N)C(=O)O)cc1; Phe(4-COOH) = N[C@@H](Cc1ccc(C(=O)O)cc1)C(=O)O; Bip = N[C@@H](Cc1ccc(-c2ccccc2)cc1)C(=O)O; Phe(3-Me) = Cc1cccc(C[C@H](N)C(=O)O)c1; Val(3-OH) = CC(C)(O)[C@H](N)C(=O)O; 4Pal = N[C@@H](Cc1ccncc1)C(=O)O; Cha = N[C@@H](CC1CCCCC1)C(=O)O; Cit = NC(=O)NCCC[C@H](N)C(=O)O; Thr(3ξ) = CC(O)[C@H](N)C(=O)O; Carboxymethyl = O=C(O)C*; Orn = NCCC[C@H](N)C(=O)O; Dab = NCC[C@H](N)C(=O)O

Molecular target: T1, human PD-1 / PD-L1-Ig binding on Jurkat cell line over-expressing human PD-1 (Jurkat-PD-1) (Homo sapiens, UniProt Q15116)
T1 construct: expressed in transfected cells; host or cells: Jurkat
T1 sequence (Q15116 25-288): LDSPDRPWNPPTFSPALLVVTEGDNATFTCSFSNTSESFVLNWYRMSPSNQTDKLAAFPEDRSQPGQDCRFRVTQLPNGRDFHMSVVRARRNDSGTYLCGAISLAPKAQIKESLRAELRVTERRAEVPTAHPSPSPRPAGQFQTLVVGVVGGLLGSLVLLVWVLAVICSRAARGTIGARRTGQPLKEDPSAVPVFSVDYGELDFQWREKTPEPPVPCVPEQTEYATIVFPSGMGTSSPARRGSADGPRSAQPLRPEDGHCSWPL
Test: Jurkat-PD-1 Cell Binding High-Content Screening Assay (CBA)
Format: cell-based
Conditions: Jurkat-PD-1 cells, PE-labeled PD-L1-Ig 20 nM final; read-out: Jurkat HPD1_PDL1 IC50
Summary of the method: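 Jurkat cells over-expressing human PD-1, in DMEM/10% FCS, pre-incubated with compound 2 h at 37° C. PE-labeled human PD-L1-Ig (20 nM final) added for 1 h; cells fixed in paraformaldehyde with Hoechst 33342 nuclear stain, washed, and bound fluorescence quantified by high-content imaging.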

`Cc1cccc(C[C@@H]2NC(=O)[C@H](CC(=O)O)NC(=O)[C@H](Cc3ccc(C(N)=O)cc3)NC(=O)[C@H](Cc3ccncc3)NC(=O)CSC[C@@H](C(=O)N[C@@H](CCN)C(N)=O)NC(=O)[C@H](CO)NC(=O)[C@H](C(C)(C)O)NC(=O)[C@H](CC3CCCCC3)NC(=O)[C@H](CCN)NC(=O)[C@@H](CC(C)C)NC(=O)[C@H](CCCN)NC(=O)[C@H](Cc3ccc(OCC(=O)O)cc3)NC(=O)[C@H](Cc3ccc(-c4ccccc4)cc3)NC(=O)[C@H](Cc3ccc(C(=O)O)cc3)NC2=O)c1` [Compound 2627] ({CH2CO}-[4Pal][Phe(4-CONH2)]D[Phe(3-Me)][Phe(4-COOH)][Bip]Y(Carboxymethyl)[Orn][dL][Dab][Cha][Val(3-OH)]SC[Dab]-NH2; thioether N-14) and `Cc1cccc(C[C@@H]2NC(=O)[C@H](CC(=O)O)NC(=O)[C@H](Cc3ccc(C(N)=O)cc3)NC(=O)[C@H](Cc3ccncc3)NC(=O)CSC[C@@H](C(=O)N[C@@H](CCN)C(N)=O)NC(=O)[C@H](CO)NC(=O)[C@H](C(C)(C)O)NC(=O)[C@H](CC3CCCCC3)NC(=O)[C@H](CCN)NC(=O)[C@@H](CC(C)C)NC(=O)[C@H](CCCN)NC(=O)[C@H](Cc3ccc(OCC(=O)O)cc3)NC(=O)[C@H](Cc3ccc(-c4ccccc4)cc3)NC(=O)[C@H](Cc3ccc(OCC(=O)O)cc3)NC2=O)c1` [Compound 2636] ({CH2CO}-[4Pal][Phe(4-CONH2)]D[Phe(3-Me)]Y(Carboxymethyl)[Bip]Y(Carboxymethyl)[Orn][dL][Dab][Cha][Val(3-OH)]SC[Dab]-NH2; thioether N-14) are within 1.5-fold of each other in IC50: 5 nM for the first, 4.9 nM for the second.

Going from `Cc1cccc(C[C@@H]2NC(=O)[C@H](CC(=O)O)NC(=O)[C@H](Cc3ccc(OCC(=O)O)cc3)NC(=O)[C@H](Cc3ccncc3)NC(=O)CSC[C@@H](C(=O)N[C@H](CC(N)=O)C(N)=O)NC(=O)[C@H](CO)NC(=O)[C@H](C(C)(C)O)NC(=O)[C@H](CC3CCCCC3)NC(=O)[C@H](CCN)NC(=O)[C@@H](CC(C)C)NC(=O)[C@H](CCCN)NC(=O)[C@H](Cc3ccc(OCC(=O)O)cc3)NC(=O)[C@H](Cc3ccc(-c4ccccc4)cc3)NC(=O)[C@H](Cc3ccc(C(=O)O)cc3)NC2=O)c1` [Compound 2628] ({CH2CO}-[4Pal]Y(Carboxymethyl)D[Phe(3-Me)][Phe(4-COOH)][Bip]Y(Carboxymethyl)[Orn][dL][Dab][Cha][Val(3-OH)]SC[dN]-NH2; thioether N-14) to `Cc1cccc(C[C@@H]2NC(=O)[C@H](CC(=O)O)NC(=O)[C@H](Cc3ccc(OCC(=O)O)cc3)NC(=O)[C@H](C(C)O)NC(=O)CSC[C@@H](C(=O)N[C@@H](CCN)C(N)=O)NC(=O)[C@H](CO)NC(=O)[C@H](C(C)(C)O)NC(=O)[C@H](CC3CCCCC3)NC(=O)[C@H](CCN)NC(=O)[C@@H](CC(C)C)NC(=O)[C@H](CCCN)NC(=O)[C@H](Cc3ccc(OCC(=O)O)cc3)NC(=O)[C@H](Cc3ccc(-c4ccccc4)cc3)NC(=O)[C@H](Cc3ccc(C(=O)O)cc3)NC2=O)c1` (stereo partly drawn) [Compound 2634] ({CH2CO}-[Thr(3ξ)]Y(Carboxymethyl)D[Phe(3-Me)][Phe(4-COOH)][Bip]Y(Carboxymethyl)[Orn][dL][Dab][Cha][Val(3-OH)]SC[Dab]-NH2; thioether N-14), the IC50 falls from 20.6 nM to 4.7 nM (4.4-fold).

`CC(C)C[C@H]1NC(=O)[C@H](CCCN)NC(=O)[C@H](C(C)C)NC(=O)[C@H](Cc2ccc(-c3ccccc3)cc2)NC(=O)[C@H](C(C)C)NC(=O)[C@H](Cc2c[nH]c3ccccc23)NC(=O)[C@H](CC(=O)O)NC(=O)[C@H](Cc2ccc(OCC(=O)O)cc2)NC(=O)[C@H](Cc2ccncc2)NC(=O)CSC[C@@H](C(=O)N[C@@H](CCN)C(N)=O)NC(=O)[C@H](C(C)O)NC(=O)[C@H](C(C)(C)O)NC(=O)[C@H](CC2CCCCC2)NC(=O)[C@H](CCN)NC1=O` (stereo partly drawn) [Compound 2629] ({CH2CO}-[4Pal]Y(Carboxymethyl)DWV[Bip]V[Orn][dL][Dab][Cha][Val(3-OH)][Thr(3ξ)]C[Dab]-NH2; thioether N-14) and `CC(C)C[C@H]1NC(=O)[C@H](CCCN)NC(=O)[C@H](C(C)C)NC(=O)[C@H](Cc2ccc(-c3ccccc3)cc2)NC(=O)[C@H](C(C)C)NC(=O)[C@H](Cc2c[nH]c3ccccc23)NC(=O)[C@H](CC(=O)O)NC(=O)[C@H](Cc2ccc(OCC(=O)O)cc2)NC(=O)[C@H](C(C)O)NC(=O)CSC[C@@H](C(=O)N[C@@H](CCN)C(N)=O)NC(=O)[C@H](C(C)O)NC(=O)[C@H](C(C)(C)O)NC(=O)[C@H](CC2CCCCC2)NC(=O)[C@H](CCN)NC1=O` (stereo partly drawn) [Compound 2631] ({CH2CO}-[Thr(3ξ)]Y(Carboxymethyl)DWV[Bip]V[Orn][dL][Dab][Cha][Val(3-OH)][Thr(3ξ)]C[Dab]-NH2; thioether N-14) are within 1.5-fold of each other in IC50: 10.6 nM for the first, 8.5 nM for the second.

`Cc1cccc(C[C@@H]2NC(=O)[C@H](CC(=O)O)NC(=O)[C@H](Cc3ccc(OCC(=O)O)cc3)NC(=O)[C@H](Cc3ccncc3)NC(=O)CSC[C@@H](C(=O)N[C@@H](CCN)C(N)=O)NC(=O)[C@H](C(C)O)NC(=O)[C@H](C(C)(C)O)NC(=O)[C@H](CC3CCCCC3)NC(=O)[C@H](CCN)NC(=O)[C@@H](CC(C)C)NC(=O)[C@H](CCCN)NC(=O)[C@H](CCCNC(N)=O)NC(=O)[C@H](Cc3ccc(-c4ccccc4)cc3)NC(=O)[C@H](C(C)C)NC2=O)c1` (stereo partly drawn) [Compound 2630] ({CH2CO}-[4Pal]Y(Carboxymethyl)D[Phe(3-Me)]V[Bip][Cit][Orn][dL][Dab][Cha][Val(3-OH)][Thr(3ξ)]C[Dab]-NH2; thioether N-14) and `Cc1cccc(C[C@@H]2NC(=O)[C@H](CC(=O)O)NC(=O)[C@H](Cc3ccc(OCC(=O)O)cc3)NC(=O)[C@H](C(C)O)NC(=O)CSC[C@@H](C(=O)N[C@@H](CCN)C(N)=O)NC(=O)[C@H](C(C)O)NC(=O)[C@H](C(C)(C)O)NC(=O)[C@H](CC3CCCCC3)NC(=O)[C@H](CCN)NC(=O)[C@@H](CC(C)C)NC(=O)[C@H](CCCN)NC(=O)[C@H](CCCNC(N)=O)NC(=O)[C@H](Cc3ccc(-c4ccccc4)cc3)NC(=O)[C@H](C(C)C)NC2=O)c1` (stereo partly drawn) [Compound 2632] ({CH2CO}-[Thr(3ξ)]Y(Carboxymethyl)D[Phe(3-Me)]V[Bip][Cit][Orn][dL][Dab][Cha][Val(3-OH)][Thr(3ξ)]C[Dab]-NH2; thioether N-14) are within 1.5-fold of each other in IC50: 12.3 nM for the first, 8.8 nM for the second.

`Cc1cccc(C[C@@H]2NC(=O)[C@H](CC(=O)O)NC(=O)[C@H](Cc3ccc(OCC(=O)O)cc3)NC(=O)[C@H](C(C)O)NC(=O)CSC[C@@H](C(=O)N[C@@H](CCN)C(N)=O)NC(=O)[C@H](CO)NC(=O)[C@H](C(C)(C)O)NC(=O)[C@H](CC3CCCCC3)NC(=O)[C@H](CCN)NC(=O)[C@@H](CC(C)C)NC(=O)[C@H](CCCN)NC(=O)[C@H](Cc3ccc(O)cc3)NC(=O)[C@H](Cc3ccc(-c4ccccc4)cc3)NC(=O)[C@H](Cc3ccc(C(N)=O)cc3)NC2=O)c1` (stereo partly drawn) [Compound 2633] ({CH2CO}-[Thr(3ξ)]Y(Carboxymethyl)D[Phe(3-Me)][Phe(4-CONH2)][Bip]Y[Orn][dL][Dab][Cha][Val(3-OH)]SC[Dab]-NH2; thioether N-14) and `Cc1cccc(C[C@@H]2NC(=O)[C@H](CC(=O)O)NC(=O)[C@H](Cc3ccc(C(=O)O)cc3)NC(=O)[C@H](C(C)O)NC(=O)CSC[C@@H](C(=O)N[C@@H](CCN)C(N)=O)NC(=O)[C@H](CO)NC(=O)[C@H](C(C)(C)O)NC(=O)[C@H](CC3CCCCC3)NC(=O)[C@H](CCN)NC(=O)[C@@H](CC(C)C)NC(=O)[C@H](CCCN)NC(=O)[C@H](Cc3ccc(OCC(=O)O)cc3)NC(=O)[C@H](Cc3ccc(-c4ccccc4)cc3)NC(=O)[C@H](Cc3ccc(C(=O)O)cc3)NC2=O)c1` (stereo partly drawn) [Compound 2635] ({CH2CO}-[Thr(3ξ)][Phe(4-COOH)]D[Phe(3-Me)][Phe(4-COOH)][Bip]Y(Carboxymethyl)[Orn][dL][Dab][Cha][Val(3-OH)]SC[Dab]-NH2; thioether N-14) are within 1.5-fold of each other in IC50: 4 nM for the first, 4.5 nM for the second.

`CC(C)C[C@H]1NC(=O)[C@H](CCCN)NC(=O)[C@H](CCCNC(N)=O)NC(=O)[C@H](Cc2ccc(-c3ccccc3)cc2)NC(=O)[C@H](C(C)C)NC(=O)[C@H](Cc2c[nH]c3ccccc23)NC(=O)[C@H](CC(=O)O)NC(=O)[C@H](Cc2ccc(OCC(=O)O)cc2)NC(=O)[C@H](CCN)NC(=O)CSC[C@@H](C(=O)N[C@@H](CCN)C(N)=O)NC(=O)[C@H](C(C)O)NC(=O)[C@H](C(C)C)NC(=O)[C@H](CC2CCCCC2)NC(=O)[C@H](CCN)NC1=O` (stereo partly drawn) [Compound 2638] ({CH2CO}-[Dab]Y(Carboxymethyl)DWV[Bip][Cit][Orn][dL][Dab][Cha]V[Thr(3ξ)]C[Dab]-NH2; thioether N-14) and `Cc1cccc(C[C@@H]2NC(=O)[C@H](CC(=O)O)NC(=O)[C@H](Cc3ccc(OCC(=O)O)cc3)NC(=O)[C@H](CCN)NC(=O)CSC[C@@H](C(=O)N[C@@H](CCCN)C(N)=O)NC(=O)[C@H](C(C)O)NC(=O)[C@H](C(C)C)NC(=O)[C@H](CC3CCCCC3)NC(=O)[C@H](CCN)NC(=O)[C@@H](CC(C)C)NC(=O)[C@H](CCCN)NC(=O)[C@H](CCCNC(N)=O)NC(=O)[C@H](Cc3ccc(-c4ccccc4)cc3)NC(=O)[C@H](C(C)C)NC2=O)c1` (stereo partly drawn) [Compound 2639] ({CH2CO}-[Dab]Y(Carboxymethyl)D[Phe(3-Me)]V[Bip][Cit][Orn][dL][Dab][Cha]V[Thr(3ξ)]C[Orn]-NH2; thioether N-14) are within 1.5-fold of each other in IC50: 16.1 nM for the first, 13.6 nM for the second.

For `Cc1cccc(C[C@@H]2NC(=O)[C@H](CC(=O)O)NC(=O)[C@H](Cc3ccc(OCC(=O)O)cc3)NC(=O)[C@H](C(C)O)NC(=O)CSC[C@@H](C(=O)N[C@H](CC(N)=O)C(N)=O)NC(=O)[C@H](C(C)O)NC(=O)[C@H](C(C)C)NC(=O)[C@H](CC3CCCCC3)NC(=O)[C@H](CCN)NC(=O)[C@@H](CC(C)C)NC(=O)[C@H](CCCN)NC(=O)[C@H](Cc3ccc(OCC(=O)O)cc3)NC(=O)[C@H](Cc3ccc(-c4ccccc4)cc3)NC(=O)[C@H](Cc3ccc(OCC(=O)O)cc3)NC2=O)c1` (stereo partly drawn) [Compound 2640] ({CH2CO}-[Thr(3ξ)]Y(Carboxymethyl)D[Phe(3-Me)]Y(Carboxymethyl)[Bip]Y(Carboxymethyl)[Orn][dL][Dab][Cha]V[Thr(3ξ)]C[dN]-NH2; thioether N-14), the IC50 was 35 nM.
